Assay results from publication PMC12195738 (Pharmaceuticals, 2025).
Like-named read-outs stand apart in the source and are kept apart here.

Key:
[1] = design: method as in doi:10.2343/geochemj.2.0226; settings: cited from earlier work
[2] = Ex vivo permeation across porcine nasal mucosa in Franz diffusion cells; type: in vitro ADME, Sus scrofa domesticus; settings: pig
Protocol: (§1) Nasal mucosa tissues were carefully dissected from the lower turbinates within the nasal cavity. Immediately after excision, the tissues were immersed in chilled DPBS to prevent desiccation and to preserve structural integrity. The samples were then cut into appropriate sizes, and mucosal thickness was measured using an electronic digital caliper (Fisher Scientific, Waltham, MA, USA) as described in previous work. […] The nasal mucosa was mounted between the donor and receptor chambers, with the epithelial side facing the donor compartment. DPBS was used as the receptor medium and maintained at 37 ± 0.5 °C under continuous stirring at 600 rpm. At predetermined time points (0.5, 1, 2, 3, 4, 5, 6, 7, and 8 h), 0.5 mL of sample was withdrawn from the receptor compartment and immediately replaced with fresh DPBS to maintain sink conditions. The melatonin loading solution was prepared by dissolving an appropriate amount of melatonin powder in 5 mL of DPBS, stirring for 15 min, and filtering through a 0.2 µm nylon membrane filter (Fisher Scientific, Waltham, MA, USA). […] At the start of the experiment, 0.5 mL of melatonin loading solution was added to the donor compartment. Receptor samples collected at each time point were mixed with an equal volume of acetonitrile, vortexed, and centrifuged (AccuSpin Micro17, Fisher Scientific, Waltham, MA, USA) at 10,000× g for 20 min. The resulting supernatants were collected for HPLC analysis. […] Receptor samples collected at each time point were centrifuged (AccuSpin Micro17, Fisher Scientific, Waltham, MA, USA) directly at 10,000× g for 20 min. The supernatants were collected for microplate reader (SpectraMax iD5, Molecular Devices, San Jose, CA, USA) analysis. The permeation curve is reported as percentage of drug permeated and was computationally corrected for the withdrawn volume using an Excel (Microsoft, Redmond, WA, USA) add-in program DDSolver 1.0 [53]. Papp were calculated as described in previous work. Numerical simulations were performed using COMSOL Multiphysics® version 6.2 (COMSOL Inc., Burlington, MA, USA), following the methodology established in our previous study. The simulations were based on Fick’s law of diffusion, describing solute concentration changes over time and space within a defined three-dimensional geometry. The “Transport of Diluted Species” physics interface was employed to simulate drug diffusion dynamics, while adsorption effects were incorporated to account for drug retention within the nasal mucosa. […] To address this, the simulation model was first fitted to experimentally obtained permeation profiles to extract key transport parameters. These parameters were subsequently used to normalize each permeation curve to a standardized mucosal thickness of 0.80 mm. Thickness correction minimized the impact of variability and enabled more accurate and consistent comparisons across experimental conditions.

[3] = system: porcine nasal mucosa; assay: as above; type: in vitro ADME, Sus scrofa domesticus
Protocol: as §1

[4] = system: porcine nasal mucosa; assay: Flu-Na permeability across IPA-damaged porcine nasal mucosa (Franz diffusion cells); type: in vitro ADME, Sus scrofa domesticus
Protocol: To systematically investigate this issue, nasal mucosa tissues harvested from the same pig were immersed in 10%, 50%, or 100% IPA for 30 min to induce graded levels of chemical damage. A parallel control sample was incubated in DPBS under identical conditions. Flu-Na permeability was then measured as an indicator of mucosal integrity. This experiment was independently repeated in tissues from three different pigs to ensure reproducibility. Representative images of nasal mucosa following IPA-induced damage are shown in Figure 9, and the corresponding Papp values, normalized to a standardized mucosal thickness of 0.80 mm, are presented in Figure 10.
Tissues obtained from the same pig were used to evaluate the effects of different IPA concentrations and the DPBS control within a single experimental set. To ensure reproducibility, the entire experiment was independently repeated using tissues from three different pigs.
For each experimental set, three pieces of nasal mucosa tissue from the same pig were submerged in 3 mL of IPA at concentrations of 10%, 50%, or 100% for 30 min to induce graded levels of epithelial damage. A parallel control tissue sample from the same pig was submerged in 3 mL of DPBS under identical conditions. Following exposure, all tissues were thoroughly rinsed with DPBS to remove residual solvent and were immediately mounted in Franz diffusion cells for permeability testing.
Nasal mucosal permeability was evaluated using a Phoenix™ DB-6 Franz diffusion system (Teledyne Hanson Research, Los Angeles, CA, USA), equipped with a diffusion area of 1.0 cm^2 and a receptor volume of 10 mL. The nasal mucosa was mounted between the donor and receptor chambers, with the epithelial side facing the donor compartment. […]
The Flu-Na loading solution was prepared at a fixed concentration of 1 mg/mL by dissolving 25 mg of Flu-Na in 25 mL of DPBS using volumetric flasks. […] The supernatants were collected for microplate reader (SpectraMax iD5, Molecular Devices, San Jose, CA, USA) analysis.

[5] = Shake-flask log D (n-octanol/DPBS); type: physicochemical; settings: pH increased from 6.0 to 10.0
Protocol: Equal volumes of n-octanol and DPBS were mixed and shaken at room temperature for 24 h using an incubator shaker (Lab-Line Instruments, Inc., Melrose Park, IL, USA) to achieve mutual saturation. The pre-saturated n-octanol and DPBS phases were then carefully transferred into separate centrifuge tubes and centrifuged (Centrifuge 5430 R, Eppendorf AG, Hamburg, Germany) at 5000× g for 20 min to ensure complete phase separation.
Flu-Na solutions were prepared at a final concentration of 1 mg/mL by dissolving Flu-Na in pre-saturated DPBS, followed by pH adjustment to approximately 6, 7, 8, 9, and 10 using sodium hydroxide or hydrochloric acid solutions. […]
The concentrations of Flu-Na in both phases were measured at 492 nm using the microplate reader (SpectraMax iD5, Molecular Devices, San Jose, CA, USA). Calibration curve standards were prepared using DPBS adjusted to the corresponding pH values to ensure accurate quantification under each condition. The log D was calculated as the base-10 logarithm of the concentration ratio between the n-octanol phase and the aqueous phase.

[6] = design: method as in PMID 9232516; settings: reported in the literature; cited from earlier work
[7] = Visual appearance of Flu-Na solutions at different pH values; type: physicochemical; settings: 1 mg/mL, pH 4.85
Protocol: Solutions were prepared at a concentration of 1 mg/mL, and visual appearance was recorded after pH adjustment.

[8] = different-pig (inter-individual) group, n = 3, simulation-based normalization, read-out: mean Papp after normalization to standardized thickness of 0.80 mm
[9] = same-pig (intra-individual) group, n = 3, simulation-based normalization, read-out: mean Papp after normalization to standardized thickness of 0.80 mm

Row | Compound | log P ([1]; pH 4.29) | log P ([1]; pH 7.5) | Papp at 8 h ([2]; different-pig (inter-individual) group, n = 3, 8 h Franz diffusion, read-out: mean Papp before thickness normalization) | Papp at 8 h [2, 8] | Papp at 8 h, 1008 μg/mL ([2]; same-pig (intra-individual) group, n = 3, 8 h Franz diffusion, read-out: mean Papp before thickness normalization) | Papp at 8 h [2, 9] | decrease of CV of Papp by normalization ([3]; different-pig group) | decrease of CV of Papp by normalization ([3]; same-pig group) | Flu-Na permeability (Papp) vs DPBS negative control, preliminary study ([4]; 10% IPA as positive control, groups from different donor pigs, unpublished data) | trend of Papp values with IPA concentration ([4]; escalating IPA concentrations (10%, 50%, and 100%), 30 min) | Flu-Na permeability (Papp) vs DPBS negative control ([4]; mucosa immersed in 10% IPA for 30 min, same pig, normalized to 0.80 mm, three pigs) | log D (shake-flask), pH dependency [5] | log P [6] | visual appearance of solution [7]
1 | O=C1OC2(c3ccc(O)cc3Oc3cc(O)ccc32)c2ccccc21 [fluorescein] | approximately 2.78 | −0.08 |  |  |  |  |  |  |  |  |  |  |  | 
2 | COc1ccc2[nH]cc(CCNC(C)=O)c2c1 [melatonin, Melatonin] |  |  | 14.6 ± 1.42 ×10⁻⁶ cm/s | 10.5 ± 0.42 ×10⁻⁶ cm/s | 14.1 ± 3.47 ×10⁻⁶ cm/s | 10 ± 0.78 ×10⁻⁶ cm/s | 5.7% | 16.8% |  |  |  |  |  | 
3 | O=C([O-])c1ccccc1-c1c2ccc(=O)cc-2oc2cc([O-])ccc12.[Na+].[Na+] [Flu-Na, Fluorescein sodium salt] |  |  |  | 7.33 ± 1.6 ×10⁻⁶ cm/s |  | 5.28 ± 0.18 ×10⁻⁶ cm/s |  |  | paradoxical decrease | general trend of increasing Papp values | lower | progressively more negative | −0.67 to −1.52 | precipitation observed
